In general, melting point refers to the temperature of the solid-liquid transition.

The compound `Cc1nn(Cc2ccccc2)c(=O)[nH]c1=O` yielded a melting point of 141 to 142 °C.

On to `Cc1nc2ccc3c(c2o1)C(CCNC(=O)C(F)(F)F)CC3` (configuration not stated), for which the melting point is 104 to 106 °C.

For `Cc1cc(CCCCCOc2ccc(C3=NCCO3)cc2)no1`, the melting point lay in the range of 91 to 92 °C.

In the case of `COc1ccc(C2=CNC(=O)NC2)cc1OC1Cc2ccccc2C1`, the melting point was in the range of 198 to 201 °C.

Consider `COc1cc2ncnc(N3CCc4cc5[nH]ccc5cc43)c2cc1OC`, for which the melting point is 245 to 252 °C.

In the case of `N=C(N)N1CC(c2ccccc2)C(c2ccc(Cl)cc2)=N1` (configuration not stated), the melting point lay in the range of 187 to 189 °C.

In turn, `CC(C)n1nc(-c2nc(N)c(C(N)=O)nc2-c2ccccc2)ccc1=O` yielded a melting point of 217 to 220 °C.

Consider `CCNc1ccc(Cc2ccc(NCC)c3ccccc23)c2ccccc12`, for which the melting point fell in the range of 165 to 168 °C.

For the compound `COc1ccc(CNc2nc(Cl)ccc2C(=O)O)cc1Cl`, the melting point was in the range of 184 to 186 °C.

In turn, `Nn1cccc1C(=O)c1ccccc1` yielded a melting point of 65 to 69 °C.

Consider `O=C(/C=C/C=C/c1ccccc1)NCCCCC(=O)NO`, for which the melting point was in the range of 168 to 170 °C.

`CCCCCCCCCCCCCCCCNc1ccc(COC(C)=O)cc1`: the melting point fell in the range of 43 to 45 °C.

Take `CN(C)CCc1[nH]c2ccccc2c1CSc1ccccc1`: the melting point fell in the range of 97 to 99 °C.

For `O=C(O)c1ccc2[nH]c(=O)n(CCCCN3CC=C(c4ccccc4)CC3)c(=O)c2c1`, the melting point turned out to be 237 °C.

`CC(C)(c1ccccc1)N1CC(O)=C(c2ccccc2)C1=O` came in with a melting point of 206 to 208 °C.

Consider `CCOC(=O)CCCOc1ccc(C2=NNC(=O)CC2)cc1Cl`, for which the melting point fell in the range of 109 to 110 °C.

`CCCCNC(=O)NS(=O)(=O)c1ccccc1-c1nn(C)c(=O)o1`: the melting point is 110 to 115 °C.

The compound `CCCCCCC(C)(C)c1cc(OC)c(C2C(O)[C@]3(C)CC[C@H]2C3(C)C)c(OC)c1` (some centres not stated) displayed a melting point of 96 to 98 °C.

Compound `Cc1cc(/C=C/CC(C)N(C)C(=O)OC(C)(C)C)cnc1N` (configuration not stated) showed a melting point of 78 to 81 °C.

Take `O=c1[nH]c2cc(Cl)c(Cl)cc2n1CCCBr`: the melting point came to 198 °C.

In turn, `COC(=O)C(Cc1ccccc1)NC(=O)C(N)(CC(=O)O)NC(=O)C(C)C` (configuration not stated) yielded a melting point of 168 to 170 °C.

`O=CC(CC(=O)c1ccccc1)(c1ccccc1)c1ccccc1`: the melting point was 125 to 127 °C.

Turning to `Cc1oc(-c2ccccc2)nc1CCOc1ccc(CN(O)C(N)=O)cc1F`, the melting point lay in the range of 135 to 136 °C.

With `O=Cc1ccc(-c2ccc(O)cc2)c2ccsc12`, the melting point was in the range of 203 to 204 °C.

Turning to `O=C(O)C1=COc2ccccc2O1`, the melting point was 183 to 184 °C.

`O=C1CC(c2cccc3c2OCO3)=Nc2ccc(N3CCOCC3)cc21`: the melting point lay in the range of 350 to 352 °C.

Turning to `CSc1cccc(Cc2sc(NC(C)=O)nc2C=O)c1`, the melting point fell in the range of 148 to 150 °C.

The compound `CCCCC[C@@H](CNC(=O)Nc1cccc2c1OC(C)(C)C2)c1cccc2c1OCO2` registered a melting point of 161 to 162 °C.

Consider `O=C(O)C1=Cc2cc(F)cc(F)c2OC1C(F)(F)F` (configuration not stated), for which the melting point is 207 to 211 °C.

In turn, `NS(=O)(=O)c1cccc2ccccc12` returned a melting point of 152 to 153 °C.

`O=C(c1ccc2nonc2c1)N1CCCC1` had a melting point of 97.8 to 99.3 °C.

Turning to `CCCCCC1CCc2cc(C(=O)Oc3ccc(C#N)cc3)ccc2C1` (configuration not stated), the melting point lay within 72.7 to 73.3 °C.

As to `CCc1ccc2ncc(CO)c(OC(C)C)c2c1`, the melting point fell in the range of 43 to 46 °C.

Take `Cc1oc(-c2ccccc2)nc1COc1ccc(COc2cccnc2CC#N)cc1`: the melting point fell in the range of 138 to 139 °C.

Compound `CCOC(=O)CC(=O)c1cc(F)c(N=[N+]=[N-])nc1Nc1ccc(F)cc1F` showed a melting point of 130 to 131 °C.

Turning to `CS(=O)(=O)c1ccc(-c2cocc2-c2ccc(F)cc2)cc1`, the melting point was in the range of 160 to 161 °C.

Compound `Cn1nnc(-c2ccc(-c3nnn(C)n3)nc2)n1` registered a melting point of 225 to 226 °C.

As for `Cc1oc(-c2cccc(-c3nc(CCO)c(C)o3)c2)nc1CCO`, the melting point lay in the range of 134 to 135 °C.

`CCC(=O)Nc1c(C)c(C)c2c(c1C)CC(C)(C)O2` came in with a melting point of 146 °C.

Consider `COCC(=O)N1CCc2cc(S(=O)(=O)N3CCN(c4cccc(Cl)c4)CC3)ccc21`, for which the melting point amounted to 230 °C.

As to `CCCc1ccc(C(=O)C(=O)OCC)[nH]1`, the melting point lay in the range of 48 to 49 °C.

`COC(=O)[C@]12CN(Cc3ccccc3)C[C@@H]1C(=O)CC[C@@]2(C)c1ccccc1` (racemic) registered a melting point of 115 °C.

Regarding `O=C1c2cccc3c4c(cc(c23)C(=O)N1O)OCOC4`, the melting point was more than 350 °C.

The compound `O=C(CSc1ccccc1)c1ccc2[nH]c3nc(Cl)ccc3c2c1` showed a melting point of 256 °C.

In turn, `Fc1ccccc1-c1nc(Cl)nc2ccc(Cl)cc12` gave a melting point of 208 to 210 °C.

With `COc1cc(C(C)=O)ccc1OCCCN1CCC(c2noc3cc(Cl)ccc23)CC1`, the melting point fell in the range of 116 to 118 °C.

As for `COC(=O)COC(=O)COc1ccc(N)cc1`, the melting point was 76.5 to 78.5 °C.

With `CN1CC=C(c2c[nH]c3ccc(NC(N)=S)cc23)CC1`, the melting point was in the range of 209 to 211 °C.

With `CCOC(=O)Cc1nnc2c(CC(C)C)nc(-c3ccccc3)cn12`, the melting point was in the range of 105 to 107 °C.

With `COC(=O)CCc1cc2cc(Cl)ccc2n1S(=O)(=O)c1ccccc1`, the melting point fell in the range of 93 to 96 °C.

Compound `CC(=O)Nc1cccc(C2CCNCC2)c1` had a melting point of 102 to 104 °C.

With `O=c1[nH]ncc2[nH]c(-c3ccc(OC(F)F)c(OCC4CC4)c3)cc12`, the melting point lay within 294 to 295 °C.

Compound `CCCCn1c(=O)c2[nH]cnc2n(CCCC)c1=O` returned a melting point of 166 to 169 °C.

Regarding `COc1cc2ncc(C#N)c(Nc3ccc(F)c(Cl)c3)c2cc1NC(=O)C=CCN1CCC(O)(O)CC1`, the melting point is 225 to 230 °C.

For `O=C(c1ccc(Cl)cc1)c1ccc[nH]1`, the melting point was 106 to 109 °C.

As for `N#CC(Nc1cc(Cl)c(Cl)cc1Cl)c1ccccc1` (configuration not stated), the melting point came out at 124 °C.

With `O=C(Nc1ccc(C(=O)N2Cc3ccccc3Cc3ccccc32)cc1)c1ccccc1Cl`, the melting point was 110 to 115 °C.

For `CC(=O)N1CC[C@H](Oc2ccc(C=Cc3cc4cc(C#N)ccc4o3)cc2O)C1`, the melting point was 191 to 193 °C.

For the compound `COC(=O)C=C(Nc1coc2cc(OC)ccc2c1=O)C(=O)OC`, the melting point is 134 to 138 °C.

`CC(=O)N1CCC(C(=NNc2ccccc2)c2ccc(Br)cc2F)CC1` had a melting point of 174 to 176 °C.

With `COC(=O)c1ccc2c(c1)-c1c(c(C(=O)C(C#N)C(=O)Nc3ccccc3)nn1-c1ccccc1)CS2` (configuration not stated), the melting point is 228 to 230 °C.

The compound `CCCCCCCCc1c(CC)nc2nc(Cl)nn2c1N` gave a melting point of 202 to 203 °C.

The compound `CCCCc1nn2c(-c3ccccc3)cnc2n1Cc1ccc(-c2ccccc2-c2nnn[nH]2)cc1` returned a melting point of more than 70 °C.

As for `COc1cc2ccc3c4cc(OC)c(OC)cc4nc(C)c3c2cc1OC`, the melting point was in the range of 255 to 257 °C.

On to `c1ccc(CCC2=NOC3(CCNCC3)C2)cc1`, for which the melting point fell in the range of 106 to 109 °C.

The compound `CN(C)S(=O)(=O)c1cccc2c1Sc1ccc(OCc3ccccc3)cc1N2` returned a melting point of 192 to 194 °C.

In turn, `CCOC(=O)C(Cc1ccc(OC)cc1SCc1ccc(OC)cc1)(CC(C)C)C(=O)OCC` yielded a melting point of 59 to 60.5 °C.

The compound `COc1c(Cl)ccc(-c2cc(N)c(OC(F)F)c(Cl)n2)c1F` came in with a melting point of 152 to 154 °C.

The compound `Cc1nnc2n1-c1sc(C#Cc3ccccc3)cc1C(c1ccccc1Cl)=NC2` displayed a melting point of 215 to 217 °C.

Compound `Cc1cccc(-c2n[nH]cc2-c2ccc(F)c(-c3cn[nH]c3)c2)n1` yielded a melting point of 110 to 112 °C.

Regarding `C=CCCCCc1ccc(C(=O)O)cc1`, the melting point is 79 to 82 °C.

Compound `CC1(C)CN2C(=O)c3nc[nH]c3N(Cc3ccc(Cl)cc3)C2=N1` showed a melting point of 222 to 223 °C.

The compound `c1ccc(COC2CCN(Cc3c[nH]c4ccccc34)CC2)cc1` gave a melting point of 143 to 145 °C.

`Cc1cc(F)ccc1-c1nc(-c2cn(N)c(=O)[nH]c2=O)nc2c1ccc(=O)n2-c1c(F)cccc1F`: the melting point was more than 300 °C.

For `CCCn1c(=O)c2[nH]c(/C=C/c3ccc(OC)c(Br)c3)nc2n(CCC)c1=O`, the melting point was 280 to 281 °C.

As for `CC1(C)C(C=C2CC2(F)F)C1C(=O)O` (configuration not stated), the melting point stood at 78.9 °C.

Regarding `CC(C)(C)c1cc(-c2n[nH]c(=O)o2)cc(C(C)(C)C)c1O`, the melting point worked out at 246 °C.

As for `CS(=O)(=O)n1c2cc(O)c(O)cc2c2c(Br)cc(O)c(O)c21`, the melting point was more than 270 °C.

`O=C(NN1CCN(Cc2c[nH]c3ccccc23)CC1)c1ccccc1`: the melting point fell in the range of 176 to 178 °C.

As to `Cc1c(SCCN2CCNCC2)ccnc1CSc1nc2ccccc2[nH]1`, the melting point lay in the range of 166 to 168 °C.

`COc1ccc2c(n1)C1(CO2)C(=O)N(Cc2ccc(C(F)(F)F)o2)c2ccccc21` (configuration not stated) registered a melting point of 145 to 147 °C.

Compound `C=CCOC(=O)NCc1ccc(C(=O)O)cc1` gave a melting point of 175 to 177 °C.

Regarding `Cc1ccc(C(=S)Oc2ccc(C(=O)O)cc2)cc1C12CC3CC(CC(C3)C1)C2`, the melting point is 276 to 277 °C.

For the compound `CC(C)(C)OC(=O)Nc1cc(OCC2COC(=O)O2)c(C#Cc2ccccc2)cc1N` (racemic), the melting point is 140 °C.

As to `Cc1ccc(NC(=O)OC2CCCCC2)cc1NC(=O)OC1CCCCC1`, the melting point was found to be 156 °C.

Take `CCc1nc2c(N)nc3ccccc3c2n1CCCC1(C)OCCO1`: the melting point was in the range of 195 to 196 °C.

In turn, `CCOC(=O)NC(C)c1ccc(O)c(C2CCCCC2)c1` (configuration not stated) yielded a melting point of 97 to 98 °C.

In turn, `O=C(CCl)N1CCN(C(=O)CCl)CC1` gave a melting point of 104 to 107 °C.

Take `N#CCSC(=O)c1ccc(C#N)cc1`: the melting point was 132 to 134 °C.

For the compound `Oc1ccc(-n2c(-c3ccccc3)cc3c2CCCC3)cc1`, the melting point was in the range of 181 to 182 °C.

In turn, `c1cc(-c2nccs2)nc(C2OCCO2)c1` returned a melting point of 71 °C.

`CC(=O)n1nc(-c2c(C)cc(C)c(N)c2C)n2nc(C(C)(C)C)cc12` gave a melting point of 206 to 207 °C.

For the origin of these results see a melting point compilation (Tetko et al.; mined from patent text by program, amines drawn as free bases though some values may be those of a salt).
